Format in all cases: cell-based
Assay [1] deals with T1, EGFR exon 20 ASV Ins V769_D770 (Ba/F3 cells) (Homo sapiens, UniProt P00533, INS769ASV).
T1 construct: expressed in transfected cells; host or cells: Ba/F3 (murine pro-B cells), retroviral transduction, puromycin selection, IL3-independent pool
Nature of the assay: Inhibitor activity on EGFR-dependent cell growth (CellTiter-Glo, 72 h), Ba/F3 EGFR exon 20 ASV Ins. The following applies: read-out: BaF3 ASV IC50. The source says:
(§1) Example A. Inhibitor Activity on EGFR-Dependent Cell Growth
(§2) Cell lines are generated by transducing Ba/F3 cells with retroviruses containing vectors with EGFR WT, EGFR L858R, EGFR exon 19del, EGFR L858R/C797S, EGFR exon 20 NPG Ins D770_N771, EGFR exon 20 ASV Ins V769_D770, EGFR exon 20 SVD Ins D770_N771, or EGFR exon 20 FQEA Ins A763_V764 genes and a puromycin selection marker. Transduced cells are selected with puromycin for 7 days and are then be transferred into culture media without Interleukin 3 (IL3). EGFR WT cells are maintained with supplemental EGF. Surviving cells are confirmed to express EGFR by Western blot and maintained as a pool. The IC50 date were included in Table 6 and Table 7.
(§3) 1.1 Cells are harvested from flask into cell culture medium and the cell number counted.
(§4) 1.2 Cells are diluted with culture medium to the desired density and 40 μL of cell suspension is added into each well of 384-well cell culture plate and the seeding density is 800 (FQEA, exon 19del), 600 (WT, NPG, L858R/C797S), or 400 (ASV, SVD, L858R) cells/well.
(§5) 2 Compound Preparation and Treatment
(§6) 2.1 Test compounds are dissolved to 10 mM in a DMSO stock solution. 45 μL of stock solution is transferred to a 384 polypropylene plate (pp-plate). Perform 3-fold, 10-point dilution via transferring 15 μL compound into 30 μL DMSO using a TECAN (EVO200) liquid handler.
(§7) 2.2 Spin plates at room temperature at 1,000 RPM for 1 minute.
(§8) 2.3 Transfer 120 nL of diluted compound from compound source plate into the cell plate.
(§9) 2.4 After compound treatment for 72 hours, perform CTG detection for compound treatment plates as described in “Detection” section.
(§10) 3.1 Plates are removed from incubators and equilibrated at room temperature for 15 minutes.
(§11) 3.2 Thaw the CellTiter Glo reagents and allow to equilibrate to room temperature before the experiment.
(§12) 3.3 Add 40 μL of CellTiter-Glo reagent into each well (at 1:1 to culture medium). Then place the plates at room temperature for 30 min followed by reading on EnVision.
(§13) 4.1 Inhibition activity is calculated following the formula below:
(§14) % Inhibition=100×(LumHC−LumSample)/(LumHC−LumLC) • where HC is obtained from cells treated with 0.1% DMSO only; and LC is obtained from culture medium only.
(§15) 4.2 2. Calculate the IC50 by fitting the Curve using Xlfit (v5.3.1.3), equation 201.
(§16) Y=Bottom+(Top−Bottom)/(1+10^((Log IC50−X)*HillSlope))
A general note: In ATP-based viability assays light output follows the ATP content of the culture.

The target in assay [2] is T2, EGFR exon 20 SVD Ins D770_N771 (Ba/F3 cells) (Homo sapiens, UniProt P00533, INS770SVD).
T2 construct: expressed in transfected cells; host or cells: Ba/F3 (murine pro-B cells), retroviral transduction, puromycin selection, IL3-independent pool
T2 sequence (P00533 with tags, fused parts or gaps INS770SVD): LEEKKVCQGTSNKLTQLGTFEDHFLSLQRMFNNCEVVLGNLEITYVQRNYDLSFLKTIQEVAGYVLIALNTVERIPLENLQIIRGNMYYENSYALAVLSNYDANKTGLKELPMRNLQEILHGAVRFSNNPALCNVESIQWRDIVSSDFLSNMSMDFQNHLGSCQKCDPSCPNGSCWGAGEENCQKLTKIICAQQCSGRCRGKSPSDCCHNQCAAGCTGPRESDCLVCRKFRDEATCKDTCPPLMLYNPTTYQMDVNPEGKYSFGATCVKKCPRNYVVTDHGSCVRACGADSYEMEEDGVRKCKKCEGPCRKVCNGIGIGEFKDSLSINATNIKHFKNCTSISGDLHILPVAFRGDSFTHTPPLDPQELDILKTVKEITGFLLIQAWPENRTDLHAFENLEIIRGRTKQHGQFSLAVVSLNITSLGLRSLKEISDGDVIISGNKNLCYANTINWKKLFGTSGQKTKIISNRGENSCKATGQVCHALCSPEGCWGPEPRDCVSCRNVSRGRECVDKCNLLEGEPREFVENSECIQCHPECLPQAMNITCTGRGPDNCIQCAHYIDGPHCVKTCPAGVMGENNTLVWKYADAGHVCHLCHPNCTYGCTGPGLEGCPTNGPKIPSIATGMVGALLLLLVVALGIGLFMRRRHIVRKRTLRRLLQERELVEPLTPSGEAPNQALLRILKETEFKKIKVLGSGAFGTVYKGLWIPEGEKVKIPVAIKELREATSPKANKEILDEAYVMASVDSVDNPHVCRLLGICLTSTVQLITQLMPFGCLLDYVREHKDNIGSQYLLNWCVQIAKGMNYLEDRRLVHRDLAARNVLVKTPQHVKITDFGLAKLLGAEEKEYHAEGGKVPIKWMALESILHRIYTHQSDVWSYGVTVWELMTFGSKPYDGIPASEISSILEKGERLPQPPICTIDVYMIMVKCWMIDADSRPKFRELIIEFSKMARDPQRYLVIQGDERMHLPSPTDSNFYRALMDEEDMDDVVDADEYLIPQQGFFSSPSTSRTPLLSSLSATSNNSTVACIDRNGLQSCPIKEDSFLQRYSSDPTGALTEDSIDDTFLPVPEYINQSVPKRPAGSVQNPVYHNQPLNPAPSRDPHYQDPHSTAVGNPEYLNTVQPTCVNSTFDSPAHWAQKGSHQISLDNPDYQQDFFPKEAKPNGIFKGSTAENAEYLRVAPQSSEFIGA
The experiment in a line: Inhibitor activity on EGFR-dependent cell growth (CellTiter-Glo, 72 h), Ba/F3 EGFR exon 20 SVD Ins. The note with it: read-out: BaF3 SVD IC50.
Excerpt: as §1, §2, §3, §4, §5, §6, §7, §8, §9, §10, §11, §12, §13, §14, §15, §16

The target in another assay is T3, EGFR WT (Ba/F3 cells) (Homo sapiens, UniProt P00533).
T3 construct: expressed in transfected cells; host or cells: Ba/F3 (murine pro-B cells), retroviral transduction, puromycin selection, maintained with EGF
T3 sequence (P00533 25-1210): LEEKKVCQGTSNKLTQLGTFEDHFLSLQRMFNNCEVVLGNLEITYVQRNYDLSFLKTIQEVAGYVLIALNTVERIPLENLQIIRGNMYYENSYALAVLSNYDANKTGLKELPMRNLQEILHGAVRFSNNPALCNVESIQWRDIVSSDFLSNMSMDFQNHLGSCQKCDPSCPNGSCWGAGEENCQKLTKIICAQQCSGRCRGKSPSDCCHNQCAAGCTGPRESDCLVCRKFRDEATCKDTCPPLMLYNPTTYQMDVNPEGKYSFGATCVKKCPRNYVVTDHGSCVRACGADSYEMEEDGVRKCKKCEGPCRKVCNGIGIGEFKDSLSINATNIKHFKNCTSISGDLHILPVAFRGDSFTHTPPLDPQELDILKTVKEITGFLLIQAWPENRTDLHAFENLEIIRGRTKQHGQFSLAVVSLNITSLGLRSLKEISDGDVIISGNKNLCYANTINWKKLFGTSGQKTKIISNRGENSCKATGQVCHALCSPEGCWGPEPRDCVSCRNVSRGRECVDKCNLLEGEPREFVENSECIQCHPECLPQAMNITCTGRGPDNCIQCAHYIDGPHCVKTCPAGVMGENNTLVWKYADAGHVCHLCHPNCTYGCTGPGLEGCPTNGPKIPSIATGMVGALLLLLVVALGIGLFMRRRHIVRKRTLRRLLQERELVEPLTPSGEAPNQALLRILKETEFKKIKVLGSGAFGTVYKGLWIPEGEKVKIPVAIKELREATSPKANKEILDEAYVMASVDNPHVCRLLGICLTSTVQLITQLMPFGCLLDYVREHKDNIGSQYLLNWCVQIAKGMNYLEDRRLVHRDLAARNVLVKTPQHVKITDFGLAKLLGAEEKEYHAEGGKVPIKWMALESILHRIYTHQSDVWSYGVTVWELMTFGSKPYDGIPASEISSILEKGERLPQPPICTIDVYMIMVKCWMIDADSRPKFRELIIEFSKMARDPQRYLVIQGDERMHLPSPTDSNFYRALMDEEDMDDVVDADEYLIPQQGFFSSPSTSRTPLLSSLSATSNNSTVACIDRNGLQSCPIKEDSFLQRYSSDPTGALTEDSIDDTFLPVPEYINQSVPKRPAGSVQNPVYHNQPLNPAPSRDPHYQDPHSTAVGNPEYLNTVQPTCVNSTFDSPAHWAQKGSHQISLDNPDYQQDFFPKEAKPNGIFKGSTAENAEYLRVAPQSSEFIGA
The experiment in a line: Inhibitor activity on EGFR-dependent cell growth (CellTiter-Glo, 72 h), Ba/F3 EGFR WT. The following applies: read-out: BaF3 WT IC50.
Excerpt: as §1, §2, §3, §4, §5, §6, §7, §8, §9, §10, §11, §12, §13, §14, §15, §16

Assay [3] has as its target T4, EGFR exon 20 FQEA Ins A763_V764 (Ba/F3 cells) (Homo sapiens, UniProt P00533, INS763FQEA).
T4 construct: expressed in transfected cells; host or cells: Ba/F3 (murine pro-B cells), retroviral transduction, puromycin selection, IL3-independent pool
The experiment in a line: Inhibitor activity on EGFR-dependent cell growth (CellTiter-Glo, 72 h), Ba/F3 EGFR exon 20 FQEA Ins. The following applies: read-out: BaF3 FQEA IC50.
Excerpt: as §1, §2, §3, §4, §5, §6, §7, §8, §9, §10, §11, §12, §13, §14, §15, §16

pIC50: −log10 of the molar value.

T4 sequence (P00533 with tags, fused parts or gaps INS763FQEA): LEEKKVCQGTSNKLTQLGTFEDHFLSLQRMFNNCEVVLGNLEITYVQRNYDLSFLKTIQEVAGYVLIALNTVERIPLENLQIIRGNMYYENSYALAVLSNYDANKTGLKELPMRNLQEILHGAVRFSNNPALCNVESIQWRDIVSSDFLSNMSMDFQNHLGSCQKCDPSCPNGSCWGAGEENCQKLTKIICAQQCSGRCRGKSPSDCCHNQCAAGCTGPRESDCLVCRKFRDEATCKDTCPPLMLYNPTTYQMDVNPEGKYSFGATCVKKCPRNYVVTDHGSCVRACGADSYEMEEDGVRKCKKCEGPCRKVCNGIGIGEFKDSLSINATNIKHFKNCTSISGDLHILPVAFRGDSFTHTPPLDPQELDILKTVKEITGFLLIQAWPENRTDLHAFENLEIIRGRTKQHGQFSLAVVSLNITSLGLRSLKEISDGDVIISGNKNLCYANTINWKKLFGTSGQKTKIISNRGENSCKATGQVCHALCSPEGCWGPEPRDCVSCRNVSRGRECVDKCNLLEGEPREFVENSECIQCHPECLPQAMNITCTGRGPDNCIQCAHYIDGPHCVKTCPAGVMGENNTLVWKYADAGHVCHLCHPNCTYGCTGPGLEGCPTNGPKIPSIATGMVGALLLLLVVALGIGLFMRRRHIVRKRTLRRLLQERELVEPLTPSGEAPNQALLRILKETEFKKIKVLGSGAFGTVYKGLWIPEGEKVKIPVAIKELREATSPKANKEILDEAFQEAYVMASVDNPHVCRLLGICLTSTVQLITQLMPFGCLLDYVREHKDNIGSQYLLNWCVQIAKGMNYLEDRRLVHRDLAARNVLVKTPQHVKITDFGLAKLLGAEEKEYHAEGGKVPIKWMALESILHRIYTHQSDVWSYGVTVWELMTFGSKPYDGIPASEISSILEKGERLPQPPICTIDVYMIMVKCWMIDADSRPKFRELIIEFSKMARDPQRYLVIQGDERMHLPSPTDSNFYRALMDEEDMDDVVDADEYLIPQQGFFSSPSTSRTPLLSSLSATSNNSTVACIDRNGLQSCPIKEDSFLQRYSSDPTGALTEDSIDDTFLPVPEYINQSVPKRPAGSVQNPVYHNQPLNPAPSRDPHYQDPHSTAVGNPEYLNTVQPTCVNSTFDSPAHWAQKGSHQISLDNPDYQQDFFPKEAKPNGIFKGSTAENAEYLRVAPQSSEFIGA
T1 sequence (P00533 with tags, fused parts or gaps INS769ASV): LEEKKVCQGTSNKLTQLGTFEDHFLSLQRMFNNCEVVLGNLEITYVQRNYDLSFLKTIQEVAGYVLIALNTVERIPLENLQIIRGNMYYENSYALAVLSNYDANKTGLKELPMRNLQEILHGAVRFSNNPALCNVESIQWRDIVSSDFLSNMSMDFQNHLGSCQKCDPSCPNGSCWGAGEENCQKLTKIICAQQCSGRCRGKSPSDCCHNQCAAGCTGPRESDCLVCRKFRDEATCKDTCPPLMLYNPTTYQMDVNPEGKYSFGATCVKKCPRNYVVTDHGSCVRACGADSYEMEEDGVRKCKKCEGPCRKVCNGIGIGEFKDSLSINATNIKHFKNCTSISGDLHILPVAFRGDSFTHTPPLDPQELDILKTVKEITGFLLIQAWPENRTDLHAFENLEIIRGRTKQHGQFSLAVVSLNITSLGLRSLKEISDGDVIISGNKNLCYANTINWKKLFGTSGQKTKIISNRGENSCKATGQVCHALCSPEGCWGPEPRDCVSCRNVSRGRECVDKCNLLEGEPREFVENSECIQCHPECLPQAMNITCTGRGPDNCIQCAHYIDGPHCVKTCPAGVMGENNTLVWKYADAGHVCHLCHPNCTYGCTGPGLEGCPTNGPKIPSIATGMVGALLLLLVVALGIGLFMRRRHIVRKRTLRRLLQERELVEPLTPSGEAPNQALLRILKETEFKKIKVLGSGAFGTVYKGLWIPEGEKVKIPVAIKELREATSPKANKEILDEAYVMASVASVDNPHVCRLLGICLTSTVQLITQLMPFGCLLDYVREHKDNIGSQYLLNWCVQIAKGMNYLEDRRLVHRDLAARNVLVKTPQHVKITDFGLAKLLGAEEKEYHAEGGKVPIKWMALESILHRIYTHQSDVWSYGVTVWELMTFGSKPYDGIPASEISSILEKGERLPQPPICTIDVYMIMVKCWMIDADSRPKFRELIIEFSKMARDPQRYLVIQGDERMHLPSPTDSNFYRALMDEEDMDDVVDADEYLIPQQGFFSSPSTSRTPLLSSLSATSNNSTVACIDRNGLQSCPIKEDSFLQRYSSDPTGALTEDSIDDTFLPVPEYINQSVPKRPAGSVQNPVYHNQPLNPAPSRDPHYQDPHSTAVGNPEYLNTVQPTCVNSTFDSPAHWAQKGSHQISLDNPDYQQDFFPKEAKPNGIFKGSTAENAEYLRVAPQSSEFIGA

Broadly, the pIC50 is the IC50 on a negative log10 scale, so that one unit is a factor of ten. Take `COc1c(Cl)cccc1Nc1c(-c2ccnc(-c3ccn(C)n3)n2)[nH]c2c1C(=O)NCC2` [compound 544, 3-[(3-chloro-2-methoxyphenyl)amino]-2-[2-(1-methylpyrazol-3-yl)pyrimidin-4-yl]-1H,5H,6H,7H-pyrrolo[3,2-c]pyridin-4-one]: the pIC50 in assay [1] is 6.00 to 7.00; in assay [2], 6.00 to 7.00; on EGFR WT (Ba/F3 cells), under 6.00; in assay [3], 6.00 to 7.00.

Consider `COc1c(F)cccc1Nc1c(-c2ccnc(SC)n2)[nH]c2c1C(=O)NCC2` [compound 255], for which the pIC50 (in assay [1]; in assay [2]; at EGFR WT (Ba/F3 cells); in assay [3]) was 6.00 to 7.00 each time.

Consider `COc1c(Cl)cccc1Nc1c(-c2ccncc2F)[nH]c2c1C(=O)NC[C@@H]2CC(N)=O` [Compound 474], for which the pIC50 (in assay [1]; in assay [2]; at EGFR WT (Ba/F3 cells); in assay [3]) was under 6.00 throughout.

In the case of `C=CC(=O)N1CC[C@@]2(CNC(=O)c3c2[nH]c(-c2ccncc2F)c3Nc2cccc(Cl)c2OC)C1` [compound 521], the negative-log IC50 (pIC50) is 6.00 to 7.00 in assay [1], 6.00 to 7.00 in assay [2], under 6.00 at EGFR WT (Ba/F3 cells) and 6.00 to 7.00 in assay [3].

Turning to `COc1ncc2nccc(-c3[nH]c4c(c3Nc3cccc(Cl)c3OC)C(=O)N[C@H](C(F)(F)F)C4)c2n1` [Compound 508, (6S)-3-[(3-chloro-2-methoxyphenyl)amino]-2-{2-methoxypyrido[3,2-d]pyrimidin-8-yl}-6-(trifluoromethyl)-1H,5H,6H,7H-pyrrolo[3,2-c]pyridin-4-one], the pIC50 in assay [1] was under 6.00; in assay [2], 6.00 to 7.00; on EGFR WT (Ba/F3 cells), under 6.00; in assay [3], 6.00 to 7.00.

`COc1c(Cl)cccc1Nc1c(-c2ccnc3ccc(OC4COC4)nc23)[nH]c2c1C(=O)NCC21CC1` [Compound 777, 3′-[(3-chloro-2-methoxyphenyl)amino]-2′-[6-(oxetan-3-yloxy)-1,5-naphthyridin-4-yl]-5′,6′-dihydro-1′H-spiro[cyclopropane-1,7′-pyrrolo[3,2-c]pyridin]-4′-one]: the pIC50 in assay [1] was over 7.00; in assay [2], over 7.00; at EGFR WT (Ba/F3 cells), 6.00 to 7.00; in assay [3], over 7.00.

Regarding `COc1c(Cl)cccc1Nc1c(-c2ccnc(NC[C@H]3COCCO3)n2)[nH]c2c1C(=O)NCC2` [compound 723, 3-[(3-chloro-2-methoxyphenyl)amino]-2-(2-[[(2S)-1,4-dioxan-2-ylmethyl]amino]pyrimidin-4-yl)-1H,5H,6H,7H-pyrrolo[3,2-c]pyridin-4-one], the pIC50 is 6.00 to 7.00 in assay [1], under 6.00 in assay [2], under 6.00 on EGFR WT (Ba/F3 cells) and under 6.00 in assay [3].

With `COC(=O)N1CCC2(CC1)CNC(=O)c1c2[nH]c(-c2ccncc2F)c1Nc1cccc(Cl)c1OC` [Compound 479, methyl 3′-[(3-chloro-2-methoxyphenyl)amino]-2′-(3-fluoropyridin-4-yl)-4′-oxo-5′,6′-dihydro-1′H-spiro[piperidine-4,7′-pyrrolo[3,2-c]pyridine]-1-carboxylate], the pIC50 in assay [1] was 6.00 to 7.00; in assay [2], 6.00 to 7.00; at EGFR WT (Ba/F3 cells), under 6.00; in assay [3] it was 6.00 to 7.00.

For `COc1ccc2nccc(-c3[nH]c4c(c3Nc3cccc(Cl)c3OC)C(=O)NC[C@H]4CCF)c2n1` [Compound 745, (R)-3-((3-chloro-2-methoxyphenyl)amino)-7-(2-fluoroethyl)-2-(6-methoxy-1,5-naphthyridin-4-yl)-1,5,6,7-tetrahydro-4H-pyrrolo[3,2-c]pyridin-4-one], the pIC50 (in assay [1]; in assay [2]; at EGFR WT (Ba/F3 cells); in assay [3]) was over 7.00 each time.

With `COc1c(Cl)cccc1Nc1c(-c2ccncc2F)[nH]c2c1C(=O)NC[C@]21CCN(CC(F)(F)F)C1` [compound 818], the negative logarithm of the IC50 (pIC50) in assay [1] is 6.00 to 7.00; in assay [2], 6.00 to 7.00; at EGFR WT (Ba/F3 cells), under 6.00; in assay [3], 6.00 to 7.00.

As for `COc1ncc2nccc(-c3[nH]c4c(c3Nc3cccc(Cl)c3C(F)(F)F)C(=O)NCC4)c2n1` [Compound 801, 3-{[3-chloro-2-(trifluoromethyl)phenyl]amino}-2-{2-methoxypyrido[3,2-d]pyrimidin-8-yl}-1H,5H,6H,7H-pyrrolo[3,2-c]pyridin-4-one], the negative logarithm of the IC50 (pIC50) in assay [1] was 6.00 to 7.00; in assay [2], under 6.00; on EGFR WT (Ba/F3 cells) it was under 6.00; in assay [3], under 6.00.

For the compound `COc1c(Cl)cccc1Nc1c(-c2ccnc3[nH]c(=O)c(OC)nc23)[nH]c2c1C(=O)NCC2` [compound 729, 8-(3-((3-chloro-2-methoxyphenyl)amino)-4-oxo-4,5,6,7-tetrahydro-1H-pyrrolo[3,2-c]pyridin-2-yl)-2-methoxypyrido[2,3-b]pyrazin-3 (4H)-one], the pIC50 is 6.00 to 7.00 in assay [1], over 7.00 in assay [2], 6.00 to 7.00 on EGFR WT (Ba/F3 cells) and 6.00 to 7.00 in assay [3].

As to `COc1c(F)cccc1Nc1c(-c2ccnc(-c3cnn(C)c3)c2)[nH]c2c1C(=O)NCC2` [compound 259], the pIC50 (in assay [1]; in assay [2]; at EGFR WT (Ba/F3 cells); in assay [3]) was under 6.00 throughout.

For the compound `COC[C@@H]1CNC(=O)c2c1[nH]c(-c1ccnc3ccc(OC)nc13)c2Nc1cccc(Cl)c1OC` (single isomer, unassigned) [Compound 765], the pIC50 (in assay [1]; in assay [2]; at EGFR WT (Ba/F3 cells); in assay [3]) was over 7.00 in each case.

On to `COc1ncc2nccc(-c3[nH]c4c(c3Nc3cccc(Cl)c3OC(F)(F)F)C(=O)NCC4)c2n1` [Compound 802, 3-[[3-chloro-2-(trifluoromethoxy)phenyl]amino]-2-[2-methoxypyrido[3,2-d]pyrimidin-8-yl]-1H,5H,6H,7H-pyrrolo[3,2-c]pyridin-4-one], for which the pIC50 (in assay [1]; in assay [2]; on EGFR WT (Ba/F3 cells); in assay [3]) was under 6.00 each time.

As for `COc1c(Cl)cccc1Nc1c(-c2ccnc3cnc(C4CC4)nc23)[nH]c2c1C(=O)NCC2` [Compound 776, 3-[(3-chloro-2-methoxyphenyl)amino]-2-{2-cyclopropylpyrido[3,2-d]pyrimidin-8-yl}-1H,5H,6H,7H-pyrrolo[3,2-c]pyridin-4-one], the pIC50 in assay [1] was over 7.00; in assay [2] it was over 7.00; at EGFR WT (Ba/F3 cells), 6.00 to 7.00; in assay [3], over 7.00.

Turning to `CCc1c(Cl)cccc1Nc1c(-c2ccnc3cnc(OC)nc23)[nH]c2c1C(=O)NCC2` [Compound 800, 3-[(3-chloro-2-ethylphenyl)amino]-2-[2-methoxypyrido[3,2-d]pyrimidin-8-yl]-1H,5H,6H,7H-pyrrolo[3,2-c]pyridin-4-one], the pIC50 in assay [1] was over 7.00; in assay [2], over 7.00; on EGFR WT (Ba/F3 cells), 6.00 to 7.00; in assay [3], 6.00 to 7.00.

Turning to `COc1c(Cl)cccc1Nc1c(-c2ccnc3ccc(OC4CC4)nc23)[nH]c2c1C(=O)NC[C@H]2C` [Compound 769, (R)-3-((3-chloro-2-methoxyphenyl)amino)-2-(6-cyclopropoxy-1,5-naphthyridin-4-yl)-7-methyl-1,5,6,7-tetrahydro-4H-pyrrolo[3,2-c]pyridin-4-one], the pIC50 (in assay [1]; in assay [2]; on EGFR WT (Ba/F3 cells); in assay [3]) was over 7.00 throughout.

Take `COCC[C@H]1CNC(=O)c2c(Nc3cccc(Cl)c3OC)c(-c3ccncn3)n(C)c21` (single isomer, unassigned) [Compound 797]: the pIC50 (in assay [1]; in assay [2]; at EGFR WT (Ba/F3 cells); in assay [3]) was under 6.00 in each case.

The record behind these values is US20240101576A1, “HETEROCYCLIC INHIBITORS OF EGFR AND/OR HER2, FOR USE IN THE TREATMENT OF CANCER” (Scorpion Therapeutics, Inc., priority 2020, published 2024).
